Where two headings read alike, the source gives them in different places.
Key:
Sendai viruses = assay: Sendai virus inactivation by buffer solutions on ice for one hour, residual titer by plaque assay on Vero cells; type: cell-based; conditions: 0.7M, pH 4.0, on ice one hour
[1] = test system: herpes simplex viruses type 1, strain F (HSV-1); assay: HSV-1 inactivation by buffer solutions on ice for one hour, residual titer by plaque assay on Vero cells; type: cell-based
[2] = test system: influenza virus A/Aichi (H3N2); type: cell-based; conditions: 0.15M, two minutes
[3] = test system: Influenza A viruses/Aichi; type: cell-based, Influenza A virus
BVDV = conditions: 16 mM, 30° C., 10 hours, pH 4.5; cited from earlier work
[4] = Concentration 0.07 M, pH 4.0 (Example 4)
[5] = Concentration 0.14 M, pH 4.0 (Example 4)
[6] = Concentration 0.21 M, pH 4.0 (Example 4)
[7] = Concentration 0.28 M, pH 4.0 (Example 4)

Structure (SMILES) | Virus Inactivating Efficiency (LRV) ([1]; 0.35M, pH 4.0 (Example 3)) | Virus Inactivating Efficiency (LRV) [1, 4] | Virus Inactivating Efficiency (LRV) [1, 5] | Virus Inactivating Efficiency (LRV) [1, 6] | Virus Inactivating Efficiency (LRV) [1, 7] | Virus Inactivating Efficiency (LRV) ([2]; pH 4.0, 21.6° C.) | Virus Inactivating Efficiency (LRV) ([2]; pH 4.2, 21.6° C.) | other results
CCCC(=O)N[C@@H](CCCNC(=N)N)C(=O)O [Nα-butyroyl-L-arginine] | >5.5 | 0.7 | 2.2 | 4.3 | 6.0 | 4.05 | – | Virus Inactivating Efficiency (LRV) (Sendai viruses): >3.7; Virus Inactivating Efficiency (LRV) ([3]; 0.7M, pH 4.0, on ice one hour): 3.7
Cl.N=C(N)NCCC[C@H](N)C(=O)O [arginine hydrochloride] | 4.2 | 0.5 | 1.1 | 2.2 | 3.1 | 3.87 | – | Virus Inactivating Efficiency (LRV) ([1]; Concentration 0.35 M, pH 4.0 (Example 4)): 4.5; Virus Inactivating Efficiency (LRV) ([3]; 0.7M, 20 mM sodium acetate, pH 4.0, on ice one hour): 3.7; Virus Inactivating Efficiency (LRV) ([3]; 1M, pH 4.3, on ice one hour): 2.4
CCCCCCCC(=O)O [caprylic acid] | – | – | – | – | – | – | – | titer of BVDV decreased to (BVDV): 1/10000
O=C1CC[C@@H](C(=O)O)N1 [PCA, pyrrolidone carboxylic acid] | – | – | – | – | – | 4.05 | 2.95 | –
O=C([O-])CC(O)(CC(=O)[O-])C(=O)[O-].[Na+].[Na+].[Na+] [sodium citrate, reference compound] | – | – | – | – | – | 2.66 | 2.95 | Virus Inactivating Efficiency (LRV) ([1]; 0.1M, pH 3.5, on ice one hour (Example 1)): >5.7; Virus Inactivating Efficiency (LRV) ([1]; 0.1M, pH 3.5, on ice one hour (Example 1), listed as citrate buffer solution): > 5.7; Virus Inactivating Efficiency (LRV) ([1]; 0.1M, pH 4.0, on ice one hour (Example 1)): 1.5; Virus Inactivating Efficiency (LRV) ([1]; 0.1M, pH 4.3, on ice one hour (Example 1)): 0.1; Virus Inactivating Efficiency (LRV) ([1]; 0.1M, pH 4.3, on ice one hour (Example 1), listed as citrate buffer solution): the inactivation did not take place; Virus Inactivating Efficiency (LRV) ([2]; pH 3.8, 21.6° C.): 2.74; maximum LRV ([2]; within the pH range of 3.8 to 4.2, 21.6° C.): ≤ 2.95; Virus Inactivating Efficiency (LRV) ([3]; 0.1M, pH 3.5, on ice one hour): 2.1; Virus Inactivating Efficiency (LRV) ([3]; 0.1M, pH 4.0, on ice one hour): 1.5; Virus Inactivating Efficiency (LRV) ([3]; 0.1M, pH 4.3, on ice one hour): 1.3

— patent US9462810B2, “Method for inactivating viruses with slightly acidic arginine” (AJINOMOTO CO., INC., priority 2007, dated 2016)
